Experimental data: publication PMC5269379 (Organic letters, 2016)
“Also recorded” adds a separate entry of the source.

What was measured:
[1] = system: L. lactis 481; format: cell-based, Lactococcus lactis; settings: for combined with CylLL″ MIC: concentration of each component; for combined with CylLL″ MIC / individual MIC: L. lactis 481; for individual MIC: peptide alone
[2] = system: Lactococcus lactis HP and L. lactis CNRZ 481; assay: Antimicrobial activity assay; format: cell-based; settings: in combination with CylLL″; Figures S2, S5
[3] = system: rabbit red blood cells; assay: Synergistic hemolytic activity in combination with CylLL″; format: cell-based; settings: Figure S6

Row | Substance | combined with CylLL″ MIC ([1]; combined with CylLL″) | fold increase of MIC in liquid culture ([1]; combined with CylLL″, liquid culture) | individual MIC [1] | antimicrobial activity (in words) [2] | hemolytic activity (in words) [3]
1 | CylLS″-Dhb2Dha (DL-A ring, DL-B ring) [compound 11] | 1.0 µM | 10 fold | >50 µM | decreased antimicrobial activity; also recorded: markedly smaller zone of growth inhibition | no decrease of hemolytic activity
2 | cytolysin S [CylLS″, reference compound] | 0.05 µM |  | >50 µM |  | very similar hemolytic activity
3 | CylLS″-Dhb2Dha (LL-A ring, DL-B ring) [synthetic 12] | 0.1 µM |  | >50 µM | identical antimicrobial activity | 
4 | CylLS″-Dhb2Dha [biosynthetic 12] | 0.1 µM |  | >50 µM | very similar antimicrobial activity | very similar hemolytic activity
5 | cytolysin L [CylLL″, reference compound] |  |  | >50 µM |  | 
